Experiment in all cases: drug sensitivity score (DSS), CellTiter-Glo (DSS (AUC-based score)); higher = stronger drug effect (viability inhibition or cytotoxicity); extreme values may be limits of the assay
Common to all, as to conditions: incubation time: 72 h

One assay deals with CAL-148. The essentials:
(§1)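 Breast cancer cell lines, seeded as 20 µl suspension, were incubated 72 h with compound in 384-well plates at 5 concentrations in 10-fold steps over a 10,000-fold range set for each compound. Fluorescence from CellTox Green was read at 485/520 nm before CellTiter-Glo luminescence, which was read after 10 min at room temperature. Every plate was normalised to 0.1 % DMSO and a positive kill control, and the drug sensitivity score was taken from the area under the fitted dose-response curve.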

The test system of a further assay is CAL-51. The essentials: as §1
In another assay the test system is CAL-85-1. A digest of the protocol:
as §1

The next assay deals with HCC1599. The essentials:
as §1

Another assay has as its system HCC1937. A digest of the protocol:
as §1

In another assay the test system is HDQ-P1. A digest of the protocol:
as §1

Another assay has as its system Hs578T. The essentials: as §1
For the next assay, the system named is MDA-MB-231. The essentials: as §1
The subject of a further assay is MDA-MB-468. A digest of the protocol:
as §1

The next assay deals with MFM-223. A digest of the protocol: as §1

SMILES strings stand for the structures.

Consider `N#CC[C@H](C1CCCC1)n1cc(-c2ncnc3[nH]ccc23)cn1` [Ruxolitinib], for which the drug sensitivity score in the assay on CAL-148, with CAL-51, in the assay on CAL-85-1, with HCC1599, in the assay on HCC1937 and with HDQ-P1 was 0 each time. Also, the drug sensitivity score turned out to be 0 in the assay on Hs578T, 0 in the assay with MDA-MB-231, 0.173 in the assay with MDA-MB-468 and 1.49 with MFM-223.
In the case of `CN1CC[C@H](c2c(O)cc(O)c3c(=O)cc(-c4ccccc4Cl)oc23)[C@H](O)C1` [Alvocidib], the drug sensitivity score in the assay on CAL-148 is 11.4; in the assay on CAL-51 it was 19; in the assay on CAL-85-1, 16.3; in the assay on HCC1599, 14.7; with HCC1937 it was 13.2; in the assay with HDQ-P1, 16.5. In addition, the drug sensitivity score was 16.2 in the assay with Hs578T, 19.1 in the assay on MDA-MB-231, 18.1 in the assay on MDA-MB-468 and 16.1 with MFM-223.
Turning to `Nc1ccn([C@@H]2O[C@H](CO)[C@@H](O)[C@@H]2O)c(=O)n1` [Cytarabine], the drug sensitivity score in the assay with CAL-148 was 11.3; in the assay on CAL-51 it was 13.4; in the assay on CAL-85-1 it was 0; in the assay on HCC1599 it was 0; in the assay on HCC1937 it was 0; in the assay with HDQ-P1 it was 1.06. Further, the drug sensitivity score in the assay on Hs578T was 2.8; with MDA-MB-231, 0; in the assay on MDA-MB-468, 4.8; in the assay with MFM-223, 0.
Regarding `O=C(c1ccc(C(=O)N2CCC(N3CCCC3)CC2)c(Nc2ccccc2)c1)N1CCC(N2CCCC2)CC1` [UNC1215], the drug sensitivity score in the assay on CAL-148, in the assay on CAL-51, with CAL-85-1, in the assay on HCC1599, in the assay with HCC1937 and in the assay on HDQ-P1 was 0 each time. Also, the drug sensitivity score in the assay with Hs578T, in the assay with MDA-MB-231, in the assay on MDA-MB-468 and in the assay with MFM-223 was 0 in each case.
For the compound `COc1cccc2cc(-c3nc([C@H]4CC[C@H](C(=O)O)CC4)n4ncnc(N)c34)[nH]c12` [OSI-027], the drug sensitivity score amounted to 2.6 with CAL-148; 4.69 with CAL-51; 5.52 in the assay with CAL-85-1; 0 in the assay with HCC1599; 3.56 in the assay with HCC1937; 7.43 with HDQ-P1. The drug sensitivity score was determined as 2.44 in the assay on Hs578T, 3.06 in the assay on MDA-MB-231, 4.37 in the assay with MDA-MB-468 and 6.51 in the assay with MFM-223.
With `CC(=O)O[C@]1(C(C)=O)CC[C@H]2[C@@H]3C=C(C)C4=CC(=O)CC[C@]4(C)[C@H]3CC[C@@]21C` [Megestrol acetate], the drug sensitivity score with CAL-148, in the assay with CAL-51, with CAL-85-1, in the assay on HCC1599, with HCC1937 and with HDQ-P1 was 0 each time. The drug sensitivity score in the assay on Hs578T, in the assay on MDA-MB-231, with MDA-MB-468 and with MFM-223 was 0 each time.
Turning to `COc1cc(Nc2ncc3c(n2)-c2ccc(Cl)cc2C(c2c(F)cccc2OC)=NC3)ccc1C(=O)O` [Alisertib], the drug sensitivity score in the assay with CAL-148 is 7.08; in the assay on CAL-51 it was 12.8; with CAL-85-1, 0; in the assay with HCC1599, 0; in the assay on HCC1937, 3.43; in the assay with HDQ-P1, 3.21. Also, the drug sensitivity score in the assay with Hs578T worked out at 5.73; in the assay with MDA-MB-231, 4.67; with MDA-MB-468, 23.4; in the assay with MFM-223, 10.8.
For the compound `C=CC[C@@H]1/C=C(\C)C[C@H](C)C[C@H](OC)[C@H]2O[C@@](O)(C(=O)C(=O)N3CCCC[C@H]3C(=O)O[C@H](/C(C)=C/[C@@H]3CC[C@@H](O)[C@H](OC)C3)[C@H](C)[C@@H](O)CC1=O)[C@H](C)C[C@@H]2OC` [Tacrolimus], the drug sensitivity score in the assay with CAL-148, in the assay with CAL-51, in the assay on CAL-85-1, in the assay on HCC1599, in the assay on HCC1937 and in the assay on HDQ-P1 was 0 each time. The drug sensitivity score with Hs578T, with MDA-MB-231, in the assay with MDA-MB-468 and with MFM-223 was 0 throughout.
With `OC[C@H]1O[C@@H](n2cnc3c2N=CNC[C@H]3O)C[C@@H]1O` [Pentostatin], the drug sensitivity score in the assay on CAL-148, with CAL-51, with CAL-85-1, in the assay with HCC1599, in the assay with HCC1937 and in the assay on HDQ-P1 was 0 throughout. The drug sensitivity score in the assay on Hs578T, in the assay with MDA-MB-231, in the assay on MDA-MB-468 and in the assay on MFM-223 was 0 each time.
For the compound `CN1CCC(COc2cnc(-c3cccc(Cn4nc(-c5cccc(C#N)c5)ccc4=O)c3)nc2)CC1`, the drug sensitivity score with CAL-148, with CAL-51, with CAL-85-1, in the assay with HCC1599, in the assay on HCC1937 and in the assay on HDQ-P1 was 0 throughout. For the same compound, the drug sensitivity score in the assay on Hs578T, with MDA-MB-231, in the assay with MDA-MB-468 and with MFM-223 was 0 each time.
Regarding `CS(=O)(=O)c1ccc(C(=O)Nc2ccc(Cl)c(-c3ccccn3)c2)c(Cl)c1` [Vismodegib], the drug sensitivity score with CAL-148, with CAL-51, with CAL-85-1, in the assay with HCC1599, with HCC1937 and with HDQ-P1 was 0 throughout. Further, the drug sensitivity score in the assay on Hs578T, in the assay on MDA-MB-231, in the assay with MDA-MB-468 and in the assay with MFM-223 was 0 throughout.

(Values after the supplement of paper PMC4862054.)
